Data from ChEMBL document CHEMBL4507289, “Data for DCP probe GSM1” (2021).
Calls of active or inactive are those of the source. The rule behind the calls is not given here.

Experiments:
[1] = target: Sodium-dependent noradrenaline transporter (Homo sapiens, UniProt P23975); assay: GPCRScan assay: inhibition of NET; set-up: radioligand conc. used [nm] 1.3 – 5.0, parental cells stable HEK
[2] = target: T1, Sodium-dependent dopamine transporter (Homo sapiens, UniProt Q01959); assay: GPCRScan assay: inhibition of DAT; set-up: radioligand conc. used [nm] 3.6 – 16.0, parental cells stable HEK
[3] = target: Histamine H2 receptor (Homo sapiens, UniProt P25021); assay: GPCRScan assay: inhibition of H2; set-up: radioligand conc. used [nm] 0.02 – 0.05, parental cells Stable HEK
[4] = target: T1, Sodium-dependent dopamine transporter; assay: Dopamine-uptake assay
[5] = target: Sodium-dependent serotonin transporter (Homo sapiens, UniProt P31645); assay: Serotonin-uptake assay
[6] = test system: ALK tyrosine kinase receptor (Homo sapiens), Q9UM73 [C1156Y]; conditions: Compound concentration 1000.0 nM
[7] = target: Calcium/calmodulin-dependent protein kinase kinase 2 (Homo sapiens) (UniProt Q96RR4); conditions: Compound concentration 1000.0 nM
[8] = target: Cyclin-dependent kinase 7 (Homo sapiens) (UniProt P50613); conditions: Compound concentration 1000.0 nM
[9] = target: Dual specificity tyrosine-phosphorylation-regulated kinase 2 (Homo sapiens) (UniProt Q92630); conditions: Compound concentration 1000.0 nM
[10] = target: Receptor tyrosine-protein kinase erbB-2 (Homo sapiens) (UniProt P04626); conditions: Compound concentration 1000.0 nM
[11] = target: Tyrosine-protein kinase JAK1 (Homo sapiens) (UniProt P23458); conditions: Compound concentration 1000.0 nM
[12] = target: Mitogen-activated protein kinase kinase kinase 1 (Homo sapiens) (UniProt Q13233); conditions: Compound concentration 1000.0 nM
[13] = target: Serine/threonine-protein kinase Nek7 (Homo sapiens) (UniProt Q8TDX7); conditions: Compound concentration 1000.0 nM
[14] = target: Serine/threonine-protein kinase PLK2 (Homo sapiens) (UniProt Q9NYY3); conditions: Compound concentration 1000.0 nM
[15] = target: SRSF protein kinase 1 (Homo sapiens) (UniProt Q96SB4); conditions: Compound concentration 1000.0 nM
[16] = target: Tyrosine-protein kinase SYK (Homo sapiens) (UniProt P43405); conditions: Compound concentration 1000.0 nM
[17] = target: Serine/threonine-protein kinase TNNI3K (Homo sapiens) (UniProt Q59H18); conditions: Compound concentration 1000.0 nM
[18] = target: Testis-specific serine/threonine-protein kinase 1 (Homo sapiens) (UniProt Q9BXA7); conditions: Compound concentration 1000.0 nM
[19] = target: Serine/threonine-protein kinase ULK2 (Homo sapiens) (UniProt Q8IYT8); conditions: Compound concentration 1000.0 nM
[20] = target: 5-hydroxytryptamine receptor 1E (Homo sapiens) (UniProt P28566); conditions: Compound concentration 10.0 uM
[21] = target: Mu-type opioid receptor (Homo sapiens) (UniProt P35372); conditions: Compound concentration 10.0 uM
[22] = target: Alpha-1A adrenergic receptor (Homo sapiens) (UniProt P35348); conditions: Compound concentration 10.0 uM
[23] = target: Alpha-1B adrenergic receptor (Homo sapiens) (UniProt P35368); conditions: Compound concentration 10.0 uM
[24] = target: Beta-1 adrenergic receptor (Homo sapiens) (UniProt P08588); conditions: Compound concentration 10.0 uM
[25] = target: Beta-2 adrenergic receptor (Homo sapiens) (UniProt P07550); conditions: Compound concentration 10.0 uM
[26] = target: Muscarinic acetylcholine receptor M1 (Homo sapiens) (UniProt P11229); conditions: Compound concentration 10.0 uM
[27] = target: Muscarinic acetylcholine receptor M2 (Homo sapiens) (UniProt P08172); conditions: Compound concentration 10.0 uM
[28] = target: Beta-3 adrenergic receptor (Homo sapiens) (UniProt P13945); conditions: Compound concentration 10.0 uM
[29] = target: Alpha-1D adrenergic receptor (Homo sapiens) (UniProt P25100); conditions: Compound concentration 10.0 uM
[30] = target: D(4) dopamine receptor (Homo sapiens, UniProt P21917); assay: GPCRScan assay: inhibition of D4; set-up: radioligand conc. used [nm] 0.6 – 1.7, parental cells Stable HEK
[31] = target: Alpha-1A adrenergic receptor (Homo sapiens, UniProt P35348); assay: GPCRScan assay: inhibition of Alpha1A; set-up: radioligand conc. used [nm] 0.2 - 1.0, parental cells stable HEK
[32] = target: Alpha-1B adrenergic receptor (Homo sapiens, UniProt P35368); assay: GPCRScan assay: inhibition of Alpha1B; set-up: radioligand conc. used [nm] 0.3 – 1.0, parental cells stable HEK
[33] = GPCRScan assay: inhibition of GABA/PBR; set-up: species or system Rattus norvegicus; radioligand conc. used [nm] 0.3 – 2.0, parental cells brain tissue
[34] = target: 5-hydroxytryptamine receptor 1D (Homo sapiens) (UniProt P28221); conditions: Compound concentration 10.0 uM

T1 sequence (Q01959 whole entry): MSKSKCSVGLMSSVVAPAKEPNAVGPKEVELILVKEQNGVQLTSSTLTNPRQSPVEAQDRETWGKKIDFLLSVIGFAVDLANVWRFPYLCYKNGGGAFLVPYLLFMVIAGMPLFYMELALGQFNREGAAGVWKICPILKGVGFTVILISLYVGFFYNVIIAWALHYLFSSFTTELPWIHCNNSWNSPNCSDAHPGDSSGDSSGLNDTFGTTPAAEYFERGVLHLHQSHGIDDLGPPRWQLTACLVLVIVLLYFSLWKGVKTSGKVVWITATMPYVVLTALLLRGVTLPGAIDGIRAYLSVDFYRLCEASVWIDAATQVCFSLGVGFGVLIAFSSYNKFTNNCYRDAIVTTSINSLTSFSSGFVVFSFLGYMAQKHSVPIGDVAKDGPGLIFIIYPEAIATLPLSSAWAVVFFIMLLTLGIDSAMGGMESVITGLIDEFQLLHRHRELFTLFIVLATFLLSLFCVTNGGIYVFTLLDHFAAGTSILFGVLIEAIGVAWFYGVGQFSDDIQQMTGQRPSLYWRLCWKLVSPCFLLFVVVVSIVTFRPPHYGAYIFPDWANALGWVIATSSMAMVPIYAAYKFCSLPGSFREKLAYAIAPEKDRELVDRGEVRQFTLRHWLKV
Tyrosine-protein kinase JAK1 (Homo sapiens), sequence (P23458 whole entry): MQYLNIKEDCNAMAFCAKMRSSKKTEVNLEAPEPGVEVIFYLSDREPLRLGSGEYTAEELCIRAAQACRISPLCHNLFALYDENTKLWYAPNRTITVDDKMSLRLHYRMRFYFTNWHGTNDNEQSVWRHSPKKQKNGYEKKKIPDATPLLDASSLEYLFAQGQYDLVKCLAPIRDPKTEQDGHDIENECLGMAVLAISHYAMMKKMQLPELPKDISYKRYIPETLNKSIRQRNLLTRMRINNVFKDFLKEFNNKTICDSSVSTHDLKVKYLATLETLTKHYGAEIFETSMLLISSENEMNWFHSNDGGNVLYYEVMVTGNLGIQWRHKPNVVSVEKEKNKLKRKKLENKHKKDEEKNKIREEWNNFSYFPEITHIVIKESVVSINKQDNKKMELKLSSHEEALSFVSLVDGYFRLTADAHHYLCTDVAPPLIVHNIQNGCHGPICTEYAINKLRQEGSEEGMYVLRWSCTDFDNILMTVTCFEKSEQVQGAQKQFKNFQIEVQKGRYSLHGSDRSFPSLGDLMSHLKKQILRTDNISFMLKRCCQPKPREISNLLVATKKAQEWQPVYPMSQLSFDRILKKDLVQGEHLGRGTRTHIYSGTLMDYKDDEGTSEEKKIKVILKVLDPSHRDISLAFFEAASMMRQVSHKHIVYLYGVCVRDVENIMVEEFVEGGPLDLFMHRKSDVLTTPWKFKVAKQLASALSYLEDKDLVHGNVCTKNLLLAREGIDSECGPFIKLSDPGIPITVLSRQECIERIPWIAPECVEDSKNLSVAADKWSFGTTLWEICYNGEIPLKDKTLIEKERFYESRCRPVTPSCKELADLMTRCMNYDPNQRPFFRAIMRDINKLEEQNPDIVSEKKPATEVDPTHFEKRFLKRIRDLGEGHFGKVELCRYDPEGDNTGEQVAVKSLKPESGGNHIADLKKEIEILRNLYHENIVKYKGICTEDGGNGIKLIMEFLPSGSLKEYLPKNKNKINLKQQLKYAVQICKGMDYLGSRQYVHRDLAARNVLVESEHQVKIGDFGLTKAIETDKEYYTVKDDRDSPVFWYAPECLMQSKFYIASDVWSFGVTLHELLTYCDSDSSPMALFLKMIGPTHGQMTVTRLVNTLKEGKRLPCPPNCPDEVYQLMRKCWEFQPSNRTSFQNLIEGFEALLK
Serine/threonine-protein kinase TNNI3K (Homo sapiens), sequence (Q59H18 whole entry): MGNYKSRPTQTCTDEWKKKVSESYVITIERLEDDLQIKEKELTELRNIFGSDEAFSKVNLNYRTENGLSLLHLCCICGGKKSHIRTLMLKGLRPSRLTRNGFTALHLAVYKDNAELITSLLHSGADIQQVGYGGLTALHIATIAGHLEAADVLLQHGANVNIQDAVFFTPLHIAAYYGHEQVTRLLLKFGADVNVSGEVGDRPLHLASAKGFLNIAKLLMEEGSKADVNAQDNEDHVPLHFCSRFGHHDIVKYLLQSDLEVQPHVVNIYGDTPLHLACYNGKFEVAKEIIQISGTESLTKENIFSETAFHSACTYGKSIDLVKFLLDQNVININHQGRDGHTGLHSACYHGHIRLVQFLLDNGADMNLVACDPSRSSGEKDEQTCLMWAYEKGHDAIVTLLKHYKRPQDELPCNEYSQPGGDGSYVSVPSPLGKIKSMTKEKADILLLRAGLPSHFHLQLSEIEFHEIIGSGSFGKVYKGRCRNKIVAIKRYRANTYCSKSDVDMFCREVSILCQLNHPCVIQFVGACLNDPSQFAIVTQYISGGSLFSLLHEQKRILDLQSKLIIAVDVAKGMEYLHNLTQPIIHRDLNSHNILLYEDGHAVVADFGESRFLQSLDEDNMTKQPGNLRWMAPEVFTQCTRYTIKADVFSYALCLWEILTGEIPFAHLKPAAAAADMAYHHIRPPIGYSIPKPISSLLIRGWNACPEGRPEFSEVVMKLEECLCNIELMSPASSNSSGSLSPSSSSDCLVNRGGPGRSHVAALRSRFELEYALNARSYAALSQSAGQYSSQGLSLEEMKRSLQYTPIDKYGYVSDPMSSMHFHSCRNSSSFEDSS
Calcium/calmodulin-dependent protein kinase kinase 2 (Homo sapiens), sequence (Q96RR4 2-588 limits assumed): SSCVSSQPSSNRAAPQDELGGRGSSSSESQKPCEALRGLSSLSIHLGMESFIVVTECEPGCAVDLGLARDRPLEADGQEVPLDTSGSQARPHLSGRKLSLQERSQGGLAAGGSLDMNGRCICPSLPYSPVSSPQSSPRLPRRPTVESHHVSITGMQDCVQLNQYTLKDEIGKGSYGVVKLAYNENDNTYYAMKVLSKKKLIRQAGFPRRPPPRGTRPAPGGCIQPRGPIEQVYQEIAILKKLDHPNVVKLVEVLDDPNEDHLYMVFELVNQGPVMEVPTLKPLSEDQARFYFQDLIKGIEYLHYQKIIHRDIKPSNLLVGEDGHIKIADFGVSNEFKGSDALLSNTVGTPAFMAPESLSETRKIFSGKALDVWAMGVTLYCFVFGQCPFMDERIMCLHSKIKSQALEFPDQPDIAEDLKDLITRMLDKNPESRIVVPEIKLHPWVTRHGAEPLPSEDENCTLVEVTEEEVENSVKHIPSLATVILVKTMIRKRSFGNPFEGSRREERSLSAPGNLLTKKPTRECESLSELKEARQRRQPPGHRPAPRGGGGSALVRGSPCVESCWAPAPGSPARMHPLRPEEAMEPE
ALK tyrosine kinase receptor (Homo sapiens), Q9UM73 [C1156Y], sequence (Q9UM73 whole entry C1156Y, looked up): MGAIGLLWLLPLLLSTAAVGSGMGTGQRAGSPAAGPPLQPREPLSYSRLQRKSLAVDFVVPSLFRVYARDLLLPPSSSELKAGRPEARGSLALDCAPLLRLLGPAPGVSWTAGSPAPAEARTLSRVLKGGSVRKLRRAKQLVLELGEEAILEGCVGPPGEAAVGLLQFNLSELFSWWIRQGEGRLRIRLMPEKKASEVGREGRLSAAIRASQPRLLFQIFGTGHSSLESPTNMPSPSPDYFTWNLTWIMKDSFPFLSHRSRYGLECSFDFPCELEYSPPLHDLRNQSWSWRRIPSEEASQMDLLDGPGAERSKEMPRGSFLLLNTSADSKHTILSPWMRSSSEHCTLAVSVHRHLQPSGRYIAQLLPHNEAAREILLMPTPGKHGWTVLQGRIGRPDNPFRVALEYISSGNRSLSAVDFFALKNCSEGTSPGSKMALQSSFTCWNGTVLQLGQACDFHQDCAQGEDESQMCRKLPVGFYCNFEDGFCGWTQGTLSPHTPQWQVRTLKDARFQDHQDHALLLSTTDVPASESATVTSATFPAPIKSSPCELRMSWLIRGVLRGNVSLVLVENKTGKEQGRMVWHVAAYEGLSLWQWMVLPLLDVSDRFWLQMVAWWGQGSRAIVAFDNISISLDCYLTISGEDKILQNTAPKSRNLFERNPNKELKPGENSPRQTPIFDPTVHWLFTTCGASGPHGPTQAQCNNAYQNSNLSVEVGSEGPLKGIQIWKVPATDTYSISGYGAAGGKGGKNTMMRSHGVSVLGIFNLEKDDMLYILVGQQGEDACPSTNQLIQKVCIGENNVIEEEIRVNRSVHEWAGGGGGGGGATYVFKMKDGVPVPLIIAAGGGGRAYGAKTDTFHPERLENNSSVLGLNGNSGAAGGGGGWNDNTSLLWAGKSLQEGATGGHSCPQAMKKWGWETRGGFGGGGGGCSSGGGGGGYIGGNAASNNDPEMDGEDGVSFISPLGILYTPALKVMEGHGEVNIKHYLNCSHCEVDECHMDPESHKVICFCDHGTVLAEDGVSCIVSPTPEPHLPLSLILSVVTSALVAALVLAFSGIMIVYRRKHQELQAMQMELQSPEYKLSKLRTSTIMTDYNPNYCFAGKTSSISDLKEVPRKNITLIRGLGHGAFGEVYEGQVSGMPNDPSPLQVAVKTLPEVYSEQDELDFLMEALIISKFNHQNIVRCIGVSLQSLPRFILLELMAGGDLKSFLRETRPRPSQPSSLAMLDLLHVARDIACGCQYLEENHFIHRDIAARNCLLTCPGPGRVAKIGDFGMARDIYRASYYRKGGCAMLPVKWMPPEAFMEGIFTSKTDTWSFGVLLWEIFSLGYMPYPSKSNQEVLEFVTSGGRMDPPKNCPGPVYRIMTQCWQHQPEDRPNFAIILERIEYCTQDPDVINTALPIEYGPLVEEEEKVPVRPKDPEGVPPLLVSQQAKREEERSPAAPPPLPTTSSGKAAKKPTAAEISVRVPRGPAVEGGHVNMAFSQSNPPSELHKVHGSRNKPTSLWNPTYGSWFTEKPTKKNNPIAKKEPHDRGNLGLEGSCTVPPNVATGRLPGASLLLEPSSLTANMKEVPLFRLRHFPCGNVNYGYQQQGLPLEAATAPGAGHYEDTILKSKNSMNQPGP

| Compound | residual activity [6] | residual activity [7] | residual activity [8] | residual activity [9] | residual activity [10] | residual activity [11] | residual activity [12] | residual activity [13] | residual activity [14] | residual activity [15] | residual activity [16] | residual activity [17] | residual activity [18] | residual activity [19] | inhibition [21] | inhibition [24] | further results |
| --- | --- | --- | --- | --- | --- | --- | --- | --- | --- | --- | --- | --- | --- | --- | --- | --- | --- |
| COc1cc(-c2cn([C@H]3CCc4c(F)cccc4N(CC(F)(F)F)C3=O)nn2)ccc1-n1cnc(C)c1 | 100% | 100% | 100% | 100% | 100% | 100% | 100% | 100% | 100% | 100% | 100% | 100% | 100% | 100% | 30.2% | 2.45% | Ki [1]: 808 nM; Ki ([2]; read-out: Ki): 191 nM; Ki ([2]; read-out: pKi (converted)): 200 nM; Ki [3]: 975 nM; IC50 [4]: 536 nM (active); IC50 [5]: 13 nM (active); inhibition [20]: -8.76%; inhibition [22]: 14.1%; inhibition [23]: 19.9%; inhibition [25]: -5.61%; inhibition [26]: 8.88%; inhibition [27]: 14.4%; inhibition [28]: 15.8%; inhibition [29]: 2.11% |
| COc1cc(-c2cn([C@H]3CCc4ccccc4N(CC(F)(F)F)C3=O)nn2)ccc1-n1ccc(C)n1 | 100% | 100% | 87% | 94% | 100% | 80% | 72% | 100% | 100% | 100% | 100% | 100% | 83% | 88% | 5.55% | 3.7% | Ki [30]: 4950 nM; Ki [31]: 1390 nM; Ki [32]: 10000 nM; Ki [33]: 5070 nM; pKi [33]: 5.36; inhibition [34]: 11.3% |
